In the supplement of paper PMC5908809:

How the values were obtained:
YT (IL-2 2.5 ng/mL) [1] = test: percent inhibition of viability; higher = more inhibition; details: 72 h
NK-YS (IL-2 2.5 ng/mL) [2] = test: as above; details: 72 h
KHYG-1 (IL-2 2.5 ng/mL) [3] = test: as above; details: 72 h
KAI3 (IL-2 2.5 ng/mL) [4] = test: as above; details: 72 h
[5] = tested on: normal primary NK cells, pool 3 (3 donors) (IL-2 2.5 ng/mL); test: as above; details: 72 h
NK-92 (IL-2 2.5 ng/mL) [6] = test: as above; details: 72 h
SNK-6 (IL-2 2.5 ng/mL) [7] = test: as above; details: 72 h
DERL-7 (IL-2 2.5 ng/mL) [8] = test: as above; details: 72 h
[9] = tested on: normal primary NK cells, pool 1 (3 donors) (IL-2 2.5 ng/mL); test: as above; details: 72 h
NKL (IL-2 2.5 ng/mL) [10] = test: as above; details: 72 h
[11] = tested on: normal primary NK cells, pool 1 (3 donors), resting (IL-2 0 ng/mL); test: as above; details: 72 h
IMC-1 (IL-2 20 ng/mL) [12] = test: as above; details: 72 h
[13] = tested on: normal primary NK cells, pool 2 (3 donors) (IL-2 2.5 ng/mL); test: as above; details: 72 h
[14] = tested on: normal NK cells expanded with K562-aAPC; test: as above; details: 72 h, IL-2 2.5 ng/mL
Description: (§1)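 Drug sensitivity and resistance testing on K562-aAPC-expanded normal NK cells: 5 concentrations (10-fold steps over a 10,000-fold range), 72 h at 37 °C, viability by CellTiter-Glo normalised to DMSO and benzethonium chloride controls; DSS from the fitted curve.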

YT (IL-2 2.5 ng/mL) [15] = test: drug sensitivity score (DSS) (DSS units); higher = more sensitive; extreme values may be limits of the assay; details: 72 h
NK-YS (IL-2 2.5 ng/mL) [16] = test: as above; details: 72 h
KHYG-1 (IL-2 2.5 ng/mL) [17] = test: as above; details: 72 h
KAI3 (IL-2 2.5 ng/mL) [18] = test: as above; details: 72 h
[19] = tested on: normal primary NK cells, pool 3 (3 donors) (IL-2 2.5 ng/mL); test: as above; details: 72 h
NK-92 (IL-2 2.5 ng/mL) [20] = test: as above; details: 72 h
SNK-6 (IL-2 2.5 ng/mL) [21] = test: as above; details: 72 h
DERL-7 (IL-2 2.5 ng/mL) [22] = test: as above; details: 72 h
[23] = tested on: normal primary NK cells, pool 1 (3 donors) (IL-2 2.5 ng/mL); test: as above; details: 72 h
NKL (IL-2 2.5 ng/mL) [24] = test: as above; details: 72 h
[25] = tested on: normal primary NK cells, pool 1 (3 donors), resting (IL-2 0 ng/mL); test: as above; details: 72 h
IMC-1 (IL-2 20 ng/mL) [26] = test: as above; details: 72 h
[27] = tested on: normal primary NK cells, pool 2 (3 donors) (IL-2 2.5 ng/mL); test: as above; details: 72 h
[28] = tested on: normal NK cells expanded with K562-aAPC; test: as above; details: 72 h; IL-2 2.5 ng/mL
Description: as §1

O=C(NOC[C@H](O)CO)c1ccc(F)c(F)c1Nc1ccc(I)cc1F (max concentration tested 1000 nM)
percent inhibition of viability [%]
Details	0.1 nM	1 nM	10 nM	100 nM	1000 nM
DERL-7 (IL-2 2.5 ng/mL) [8]	102	5.21	16.2	22.4	38.7
IMC-1 (IL-2 20 ng/mL) [12]	-4.97	0.45	-4.28	-5.8	-9.8
KAI3 (IL-2 2.5 ng/mL) [4]	-0.87	5.85	13.8	15.7	22.6
KHYG-1 (IL-2 2.5 ng/mL) [3]	-3.39	0.89	14.1	40.9	55
NK-92 (IL-2 2.5 ng/mL) [6]	-5.72	-7.22	-10.3	-30.8	-12.8
NK-YS (IL-2 2.5 ng/mL) [2]	-5.52	-3.02	-1.28	2.92	8.84
NKL (IL-2 2.5 ng/mL) [10]	-14.2	-2.12	27.4	41.5	59.1
SNK-6 (IL-2 2.5 ng/mL) [7]	4.76	22	-8.5	-17.1	-28.3
YT (IL-2 2.5 ng/mL) [1]	-2.67	-1.04	-2.4	1.31	4.12
[5]	-7.16	-7.47	-4.48	-8.83	-4.17
[9]	-2.22	-8.03	2.53	15.6	18
[11]	2.14	0.69	1.05	6.05	7
[13]	-3.98	-4.69	-0.06	-5.3	5.01
[14]	-1.9	-4.6	-6.15	-9.26	-3.18

Details	drug sensitivity score
DERL-7 (IL-2 2.5 ng/mL) [22]	23.1
IMC-1 (IL-2 20 ng/mL) [26]	0
KAI3 (IL-2 2.5 ng/mL) [18]	3.26
KHYG-1 (IL-2 2.5 ng/mL) [17]	9.09
NK-92 (IL-2 2.5 ng/mL) [20]	0
NK-YS (IL-2 2.5 ng/mL) [16]	0
NKL (IL-2 2.5 ng/mL) [24]	11.1
SNK-6 (IL-2 2.5 ng/mL) [21]	0
YT (IL-2 2.5 ng/mL) [15]	0
[19]	0
[23]	1.95
[25]	0
[27]	0
[28]	0

Cc1nc(C(=O)NCC(=O)O)c(O)c2ccc(Oc3ccccc3)cc12 [FG-4592] (max concentration tested 10000 nM)
percent inhibition of viability [%]
Details	1 nM	10 nM	100 nM	1000 nM	10000 nM
DERL-7 (IL-2 2.5 ng/mL) [8]	-0.63	3.45	4.49	0.12	6.99
IMC-1 (IL-2 20 ng/mL) [12]	-3.51	-1.09	1.25	-1.57	22.9
KAI3 (IL-2 2.5 ng/mL) [4]	1.56	-2.99	1.6	-0.39	17.9
KHYG-1 (IL-2 2.5 ng/mL) [3]	0.18	-1.43	2.3	3.63	19.2
NK-92 (IL-2 2.5 ng/mL) [6]	-0.86	-2.06	10.9	12.5	8.29
NK-YS (IL-2 2.5 ng/mL) [2]	-2.71	-1.91	3.2	3.83	27.3
NKL (IL-2 2.5 ng/mL) [10]	-14	-13	-11.3	-0.19	22.6
SNK-6 (IL-2 2.5 ng/mL) [7]	3.91	-11.4	5.11	2.73	28
YT (IL-2 2.5 ng/mL) [1]	1.14	-2.12	-1.6	-8.84	8.38
[5]	-2.12	-3.88	-1.26	5.12	5.24
[9]	0.46	1.21	-8.95	-4.43	-4.71
[11]	5.05	-14.3	2.92	-12.2	-4.7
[13]	-11.8	-5.39	-6.37	1.43	10.4
[14]	-0.43	-0.13	-0.05	6.19	12.6

Details	drug sensitivity score
DERL-7 (IL-2 2.5 ng/mL) [22]	0
IMC-1 (IL-2 20 ng/mL) [26]	0.7
KAI3 (IL-2 2.5 ng/mL) [18]	0.42
KHYG-1 (IL-2 2.5 ng/mL) [17]	1
NK-92 (IL-2 2.5 ng/mL) [20]	1.18
NK-YS (IL-2 2.5 ng/mL) [16]	1.72
NKL (IL-2 2.5 ng/mL) [24]	0.76
SNK-6 (IL-2 2.5 ng/mL) [21]	1.59
YT (IL-2 2.5 ng/mL) [15]	0
[19]	0
[23]	0
[25]	0
[27]	0
[28]	0.37
